Source: US20040142317A1, “Use of amino acid transporter atbo,+ as a delivery system for drugs and prodrugs” (priority 2003, published 2004)

Assays:
Assay in all cases: D-[3H]-serine transport in HRPE cells transfected with transporter cDNA
Format in all cases: cell-based
Conditions in all cases: D-[3H]-serine 5 μM
[1] = biological target: T1, LAT2/4F2hc (Homo sapiens, UniProt Q9UHI5)
T1 construct: expressed in transfected cells; host or cells: HRPE cells
T1 sequence (Q9UHI5 1-535): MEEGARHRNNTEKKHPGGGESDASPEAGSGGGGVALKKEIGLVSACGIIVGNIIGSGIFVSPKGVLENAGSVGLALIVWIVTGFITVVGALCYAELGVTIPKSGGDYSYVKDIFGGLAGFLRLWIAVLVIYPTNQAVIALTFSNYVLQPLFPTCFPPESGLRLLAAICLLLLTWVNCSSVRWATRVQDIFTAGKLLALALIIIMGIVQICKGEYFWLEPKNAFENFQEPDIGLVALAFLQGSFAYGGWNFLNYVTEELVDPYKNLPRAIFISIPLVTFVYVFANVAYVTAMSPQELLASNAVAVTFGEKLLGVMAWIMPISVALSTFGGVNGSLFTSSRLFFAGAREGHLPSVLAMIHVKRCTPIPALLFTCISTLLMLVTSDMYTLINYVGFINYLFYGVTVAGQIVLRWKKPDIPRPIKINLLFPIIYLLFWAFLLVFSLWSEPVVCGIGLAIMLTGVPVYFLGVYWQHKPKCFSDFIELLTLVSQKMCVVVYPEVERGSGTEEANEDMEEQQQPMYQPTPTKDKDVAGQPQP
T1 sequence (P08195 1-529 partner): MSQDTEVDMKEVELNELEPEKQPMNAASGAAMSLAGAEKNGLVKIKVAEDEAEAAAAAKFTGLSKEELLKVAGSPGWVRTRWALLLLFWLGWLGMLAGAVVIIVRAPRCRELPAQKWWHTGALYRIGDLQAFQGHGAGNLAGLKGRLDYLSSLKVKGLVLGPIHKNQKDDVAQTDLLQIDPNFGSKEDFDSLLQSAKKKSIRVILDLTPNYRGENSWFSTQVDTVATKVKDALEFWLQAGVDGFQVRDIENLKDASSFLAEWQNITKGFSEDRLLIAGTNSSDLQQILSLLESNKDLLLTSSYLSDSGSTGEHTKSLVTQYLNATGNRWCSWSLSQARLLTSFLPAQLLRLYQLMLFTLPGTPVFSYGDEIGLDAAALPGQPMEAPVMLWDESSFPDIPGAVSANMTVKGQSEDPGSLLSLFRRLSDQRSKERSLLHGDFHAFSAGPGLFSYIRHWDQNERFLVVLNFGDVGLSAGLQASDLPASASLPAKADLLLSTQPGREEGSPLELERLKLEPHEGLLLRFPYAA
Experimental: (§1) Transport of D-[^3H]-serine (5 μM) was measured in HRPE cells transfected with cDNA of each transporter.
(§2) The present inventors evaluated the function of 10 different amino acid transporter clones with respect to transport of D-serine in heterologous expression systems (FIG. 11). All of these transporters are expressed in the intestinal tract. The list of the transporters tested include three energy-independent, heterodimeric facilitative transporters (L1, L2, and b^0,+), three subtypes of the Na^+-coupled system A (ATA1, ATA2, and ATA3), two subtypes of the Na^+- and H^+-coupled system N (SN1 and SN2), the Na^+-coupled system ATB^0, and the Na^+- and Cl^−-coupled system ATB^0,+. […] The ability to transport D-serine was the highest for the Na^+- and Cl^−-coupled transporter ATB^0,+. ATB^0,+ belongs to the gene family of neurotransmitter transporters whose transport function is energized by multiple driving forces, namely a Na^+ gradient, a Cl^− gradient, and membrane potential. […] Based on the energetics of these two transport systems, ATB^0,+ is expected to play the leading role in this process.

[2] = biological target: T2, ATA3 (Homo sapiens, UniProt Q969I6)
T2 construct: expressed in transfected cells; host or cells: HRPE cells
T2 sequence (Q969I6 1-547): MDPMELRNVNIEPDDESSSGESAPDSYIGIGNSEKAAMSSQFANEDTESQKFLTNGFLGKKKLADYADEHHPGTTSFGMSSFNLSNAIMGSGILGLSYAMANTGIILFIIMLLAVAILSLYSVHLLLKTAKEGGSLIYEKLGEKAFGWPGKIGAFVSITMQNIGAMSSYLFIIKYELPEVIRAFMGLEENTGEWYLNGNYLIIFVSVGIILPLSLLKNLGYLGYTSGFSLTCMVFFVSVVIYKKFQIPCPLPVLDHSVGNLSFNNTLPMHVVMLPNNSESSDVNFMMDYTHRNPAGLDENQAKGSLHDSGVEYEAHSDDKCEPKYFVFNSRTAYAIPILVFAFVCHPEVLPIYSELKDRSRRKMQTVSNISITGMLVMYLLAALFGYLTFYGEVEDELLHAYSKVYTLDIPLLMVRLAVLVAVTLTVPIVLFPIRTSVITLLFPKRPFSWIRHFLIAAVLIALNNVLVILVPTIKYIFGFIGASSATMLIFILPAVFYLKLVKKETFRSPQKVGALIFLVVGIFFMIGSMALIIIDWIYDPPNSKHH
Experimental: as §1, §2

[3] = biological target: T3, system L1 (LAT1/4F2hc) (Homo sapiens, UniProt Q01650)
T3 construct: expressed in transfected cells; host or cells: HRPE cells
T3 sequence (Q01650 whole entry, species assumed, one chain of several): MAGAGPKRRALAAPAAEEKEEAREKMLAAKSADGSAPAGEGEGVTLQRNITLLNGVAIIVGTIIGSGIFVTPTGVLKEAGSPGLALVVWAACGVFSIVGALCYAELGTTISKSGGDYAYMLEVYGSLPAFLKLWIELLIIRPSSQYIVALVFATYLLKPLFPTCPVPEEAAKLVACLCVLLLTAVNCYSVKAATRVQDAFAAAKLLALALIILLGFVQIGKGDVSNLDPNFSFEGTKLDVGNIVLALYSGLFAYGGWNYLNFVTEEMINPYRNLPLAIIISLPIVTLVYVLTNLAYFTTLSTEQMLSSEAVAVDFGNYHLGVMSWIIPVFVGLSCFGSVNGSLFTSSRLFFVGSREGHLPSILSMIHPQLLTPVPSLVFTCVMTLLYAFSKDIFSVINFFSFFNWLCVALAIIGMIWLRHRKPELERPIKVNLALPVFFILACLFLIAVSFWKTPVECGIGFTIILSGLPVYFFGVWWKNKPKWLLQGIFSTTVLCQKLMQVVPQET
Experimental: as §1, §2

[4] = biological target: T4, ATA1 (Homo sapiens, UniProt Q9H2H9)
T4 construct: expressed in transfected cells; host or cells: HRPE cells
T4 sequence (Q9H2H9 1-487): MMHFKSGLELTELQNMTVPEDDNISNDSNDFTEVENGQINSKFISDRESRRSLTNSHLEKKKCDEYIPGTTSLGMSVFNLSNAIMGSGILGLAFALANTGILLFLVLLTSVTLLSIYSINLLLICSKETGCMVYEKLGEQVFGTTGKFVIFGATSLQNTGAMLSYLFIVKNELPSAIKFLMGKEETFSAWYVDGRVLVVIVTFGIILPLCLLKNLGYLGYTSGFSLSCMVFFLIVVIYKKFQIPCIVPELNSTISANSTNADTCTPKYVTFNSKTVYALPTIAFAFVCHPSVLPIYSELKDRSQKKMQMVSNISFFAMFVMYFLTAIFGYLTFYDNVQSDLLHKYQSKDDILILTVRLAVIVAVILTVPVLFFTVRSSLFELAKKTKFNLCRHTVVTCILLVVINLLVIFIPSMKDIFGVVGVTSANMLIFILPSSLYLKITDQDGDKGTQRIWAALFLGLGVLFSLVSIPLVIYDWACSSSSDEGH
Experimental: as §1, §2

N[C@H](CO)C(=O)O [D-Serine, D-serine]
D-serine transport [1]: did not exhibit detectable D-serine transport activity
D-serine transport [2]: did not
D-serine transport [3]: significant ability to transport
D-serine transport [4]: showed D-serine transport activity
